{
  "source": "patent US20240141414A1",
  "about": "“CELL-FREE BIOSENSORS WITH DNA STRAND DISPLACEMENT CIRCUITS” (Northwestern University, priority 2021, published 2024)",
  "type_in_all_cases": "biochemical",
  "key": {"SmtB": {"target": "T1, SmtB (Synechococcus elongatus, UniProt P30340)", "T1 construct": "6xHis (C); made in house; host or cells: E. coli Rosetta 2(DE3)pLysS, pET-28c plasmid (pJBL725)", "T1 sequence (P30340 with tags, fused parts or gaps)": "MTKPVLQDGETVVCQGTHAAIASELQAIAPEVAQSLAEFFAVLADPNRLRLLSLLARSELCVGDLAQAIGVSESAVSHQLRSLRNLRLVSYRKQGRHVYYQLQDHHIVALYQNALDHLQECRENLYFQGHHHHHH", "test": "SmtB-regulated in vitro transcription with TMSD fluorescence output", "conditions": "SmtB-regulated reaction, optimized smtO-Hairpin2-InvadeR design", "description": "(§1) In addition to TetR, we chose TtgR [44] and SmtB [45] as representative aTFs of the MarR family and SmtB/ArsR family, respectively. We placed the cognate operator sequence of each aTF 2-bp downstream of the T7 promoter and immediately upstream of the InvadeR sequences (FIG. 4a-c). When tetracycline was used to induce TetR-regulated reactions, we observed a strong and robust fluorescent signal visible in ˜10 minutes (FIG. 4d, FIG. 13a). […] We note that we observed a slight decrease in the induction speed from the TtgR-regulated reactions compared to that of the TetR-regulated reactions, likely due to the reduced ttgO DNA template concentration needed to accommodate TtgR's relatively weak binding affinity to its operator sequence.\nWe were immediately successful in adapting the system to TetR and TtgR (FIG. 4a, b). […]\n(§2) Regulated IVT reactions additionally included a purified aTF at the indicated concentration and were equilibrated at 37° C. for ˜10 minutes. Immediately prior to plate reader measurements, 2 ng of T7 RNAP and, optionally, a ligand at the indicated concentration were added to the reaction. Reactions were then characterized on a plate reader as described in Plate reader quantification and micromolar equivalent fluorescein (MEF) standardization."}, "TetR": {"target": "T2, TetR (Escherichia coli, UniProt P04483)", "T2 construct": "made in house; host or cells: E. coli Rosetta 2(DE3)pLysS, pET-28c plasmid (pJBL701)", "excerpt": "Next, we sought to determine whether the transcription of InvadeR can be regulated with an aTF, thus creating a ligand-responsive biosensor that uses TMSD outputs. This required us to insert an aTF operator sequence in between the T7 promotor and InvadeR sequence to allow an aTF to regulate transcription. […] To test if this spacing remained important in the TMSD platform, we used TetR as our model aTF to determine the optimum spacing for efficient repression in the presence of TetR and efficient transcription in the absence of TetR [41]. […] However, robust fluorescence signal was observed without TetR when using a 2-bp spacer, which was reduced to nearly baseline levels when regulated by TetR. […]\nUsing the 2-bp spacer, we next determined whether TetR can be de-repressed with its cognate ligand, anhydrotetracycline (aTc) to allow transcription of InvadeR (FIG. 3c). […]\nas §2"}, "TtgR": {"target": "T3, TtgR (Pseudomonas putida, UniProt Q88N29)", "T3 construct": "made in house; host or cells: E. coli Rosetta 2(DE3)pLysS, pET-28c plasmid (pJBL721)", "T3 sequence (Q88N29 other isoform, or with tags, fused parts or gaps)": "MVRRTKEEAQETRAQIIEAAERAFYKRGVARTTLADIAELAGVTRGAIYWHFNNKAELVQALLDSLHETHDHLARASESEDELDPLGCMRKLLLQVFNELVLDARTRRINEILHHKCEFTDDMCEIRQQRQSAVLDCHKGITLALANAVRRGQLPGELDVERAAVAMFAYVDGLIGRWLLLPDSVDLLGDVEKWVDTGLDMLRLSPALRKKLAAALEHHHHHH", "test": "TtgR-regulated in vitro transcription with TMSD fluorescence output", "conditions": "TtgR-regulated reactions, with and without ligand", "description": "as §1, §2"}},
  "data": [
    {"smiles": "O=S(=O)([O-])[O-].[Zn+2]", "note": "[ZnSO4]", "values": [
      {"measurement": "fluorescence activation by ligand", "setting": "SmtB", "result": "clear activation of a SmtB-regulated reaction in the presence of ZnSO4 with low background signal"}
    ]},
    {"smiles": "Cc1c2c(c(O)c3c(O)cccc13)C(=O)[C@]1(O)C(=O)C(C(N)=O)=C(O)[C@@H](N(C)C)[C@@H]1C2", "note": "[aTc, anhydrotetracycline]", "values": [
      {"measurement": "time until fluorescence is visible", "setting": "TetR; TetR-regulated InvadeR output induced with the ligand (aTc 10 μM)", "result": "~10", "unit": "min"},
      {"measurement": "speed of fluorescence activation relative to the RNA aptamer platform", "setting": "TetR; equimolar amounts of DNA template, TetR and aTc", "result": "approximately 5 times"}
    ]},
    {"smiles": "O=C1C[C@@H](c2ccc(O)cc2)Oc2cc(O)cc(O)c21", "note": "[naringenin]", "values": [
      {"measurement": "fluorescence activation by ligand", "setting": "TtgR", "result": "robust fluorescence activation only in the presence of the ligand"}
    ]}
  ]
}
